The results in this text go back to the supplement of paper PMC12317010.

The structures appear in SMILES notation. Counter-ions that a name gives are not always drawn.

This series is described as follows: collision cross section in nitrogen (drift tube, single-field); higher = larger gas-phase ion size.
Setting [1] is: ion type: [M+H], ion source: APCI, ion mode: Positive.
The mark [2] stands for this setting: ion type: [M+H], ion source: ESI, ion mode: Positive.
Where [3] appears, read: ion type: [M+Na], ion source: ESI, ion mode: Positive.
The mark [4] stands for this setting: ion type: [M-H], ion source: ESI, ion mode: Negative.
[5] abbreviates: ion type: [M+], ion source: APCI, ion mode: Positive.
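Further: chemical standards at 10 µM analysed by drift tube IMS-QTOF MS in about 3.95 torr nitrogen, mean of duplicate injections differing ≤1%, mass error below 10 ppm.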

Regarding `O=P1(N(CCCl)CCCl)NCCCO1` (stereo not drawn) [Cyclophosphamide monohydrate], the “collision cross section in nitrogen” value is 148 Å² under setting [1], 147.6 Å² under setting [2] and 154.6 Å² under setting [3].

Consider `O=P1(N(CCCl)CCCl)NCCCO1` (stereo not drawn) [Cyclophosphamide], for which the “collision cross section in nitrogen” value is on record as 147.8 Å² under setting [1], 147.7 Å² under setting [2] and 154.6 Å² under setting [3].

As to `CCCCOC(=O)[C@@H](C)Oc1ccc(Oc2ccc(C#N)cc2F)cc1` [Cyhalofop-butyl], under setting [3], the “collision cross section in nitrogen” value came out at 191.2 Å².

Regarding `CC(C1CC1)C(O)(Cn1cncn1)c1ccc(Cl)cc1` (stereo not drawn) [Cyproconazole], the “collision cross section in nitrogen” value reads like this: under setting [1], 170.6 Å²; under setting [2], 170.2 Å².

For `Cc1cc(C2CC2)nc(Nc2ccccc2)n1` [Cyprodinil], the “collision cross section in nitrogen” value is listed as 153.1 Å² under setting [1] and 153.4 Å² under setting [2].

In the case of `CC(=O)O[C@]1(C(C)=O)CC[C@H]2[C@@H]3C=C(Cl)C4=CC(=O)[C@@H]5C[C@@H]5[C@]4(C)[C@H]3CC[C@@]21C` [Cyproterone acetate], the “collision cross section in nitrogen” value under setting [2] is on record as 201.9 Å² and the “collision cross section in nitrogen” value under setting [4] is 201.5 Å².

For `Nc1nc(N)nc(NC2CC2)n1` [Cyromazine], the “collision cross section in nitrogen” value by setting is: under setting [1], 135.6 Å²; under setting [2], 135.9 Å².

With `Nc1ccn([C@@H]2O[C@H](CO)[C@@H](O)[C@@H]2O)c(=O)n1` [Cytarabine hydrochloride], the “collision cross section in nitrogen” value under setting [3] stood at 157.1 Å².

Turning to `Nc1ccn([C@@H]2O[C@H](CO)[C@@H](O)[C@@H]2O)c(=O)n1` [Cytarabine], the “collision cross section in nitrogen” value under setting [3] is recorded as 156.9 Å².

In the case of `Nc1ccnc(=O)[nH]1` [Cytosine], the “collision cross section in nitrogen” value under setting [1] came out at 117.3 Å² and the “collision cross section in nitrogen” value under setting [2] was 118.8 Å².

For the molecule `O=C1c2ccccc2C(=O)C1c1ccc2ccccc2n1` [D & C Yellow 11], the “collision cross section in nitrogen” value runs as follows: under setting [2], 158.6 Å²; under setting [4], 163.8 Å².

As to `O=C1OC2(c3cc(Br)c(O)c(Br)c3Oc3c2cc(Br)c(O)c3Br)c2c(Cl)c(Cl)c(Cl)c(Cl)c21` [D&C Red 27], the “collision cross section in nitrogen” value under setting [4] was determined as 226.8 Å².

`Cc1ccc(Nc2ccc(O)c3c2C(=O)c2ccccc2C3=O)cc1` [D&C Violet 2]: the “collision cross section in nitrogen” value was 176.9 Å² under setting [1], 176.7 Å² under setting [2] and 174 Å² under setting [5].

For the molecule `OC[C@@H](O)[C@@H](O)[C@H](O)[C@@H](O)CO` [D-Glucitol], the “collision cross section in nitrogen” value is reported as 143.4 Å² under setting [3] and 132.3 Å² under setting [4].

For `O=C(O)[C@H](O)[C@@H](O)[C@H](O)[C@H](O)CO` [D-Gluconic acid], the “collision cross section in nitrogen” value under setting [4] is given as 133.2 Å².

Consider `OC[C@@H](O)[C@@H](O[C@@H]1O[C@H](CO)[C@H](O)[C@H](O)[C@H]1O)[C@H](O)[C@@H](O)CO` [D-Lactitol monohydrate], for which the “collision cross section in nitrogen” value runs as follows: under setting [3], 175.3 Å²; under setting [4], 171.4 Å².

Regarding `OC[C@@H](O)[C@@H](O)[C@H](O)[C@H](O)CO` [D-Mannitol], the “collision cross section in nitrogen” value by setting is: under setting [3], 141.5 Å²; under setting [4], 132.5 Å².

As to `CCN(CC)C(=O)c1cccc(C)c1` [DEET], the “collision cross section in nitrogen” value was 143.5 Å² under setting [1], 143.6 Å² under setting [2] and 160.2 Å² under setting [3].

Take `CN(C)NC(=O)CCC(=O)O` [Daminozide]: the “collision cross section in nitrogen” value under setting [3] was found to be 142.5 Å² and the “collision cross section in nitrogen” value under setting [4] stood at 135.2 Å².

As for `O=C1CN(N=Cc2ccc(-c3ccc([N+](=O)[O-])cc3)o2)C(=O)N1` [Dantrolene sodium], the “collision cross section in nitrogen” value under setting [4] is 180 Å².

For the molecule `Nc1ccc(S(=O)(=O)c2ccc(N)cc2)cc1` [Dapsone], the “collision cross section in nitrogen” value reads like this: under setting [1], 155.5 Å²; under setting [2], 155 Å²; under setting [3], 170.7 Å²; under setting [4], 157.9 Å².

For `CC(C)(C)c1cc(/C=C2\SC(=N)NC2=O)cc(C(C)(C)C)c1O` [Darbufelone mesylate], the “collision cross section in nitrogen” value under setting [1] is recorded as 188.3 Å², the “collision cross section in nitrogen” value under setting [2] worked out at 188 Å², the “collision cross section in nitrogen” value under setting [3] was found to be 207.3 Å² and the “collision cross section in nitrogen” value under setting [4] is reported as 186.1 Å².

`O=C(O)CCCCCCCCC(=O)O` [Decanedioic acid]: under setting [4], the “collision cross section in nitrogen” value stood at 144.6 Å².

On to `CCCCCCCCCC(=O)O` [Decanoic acid], for which the “collision cross section in nitrogen” value under setting [4] stood at 149.5 Å².

Consider `CCCCCCCCCCOC(C)=O` [Decyl acetate], for which the “collision cross section in nitrogen” value under setting [4] came out at 155 Å².

In the case of `CCCCCCCCCCO[C@@H]1O[C@H](CO)[C@@H](O)[C@H](O)[C@H]1O` [Decyl beta-D-glucopyranoside], the “collision cross section in nitrogen” value is, setting by setting: under setting [3], 187.7 Å²; under setting [4], 192.6 Å².

On to `CC(=O)OCC(=O)[C@@]12N=C(C)O[C@@H]1C[C@H]1[C@@H]3CCC4=CC(=O)C=C[C@]4(C)[C@H]3[C@@H](O)C[C@@]12C` [Deflazacort], for which the “collision cross section in nitrogen” value under setting [1] is 205.2 Å², the “collision cross section in nitrogen” value under setting [2] was determined as 204.8 Å², the “collision cross section in nitrogen” value under setting [3] was found to be 213.4 Å² and the “collision cross section in nitrogen” value under setting [4] came out at 206.7 Å².

In the case of `CC(C)c1ccc2c(c1)CC[C@H]1[C@](C)(CN)CCC[C@]21C` [Dehydroabietylamine acetate], the “collision cross section in nitrogen” value under setting [1] was 188.9 Å².

Take `CC(C)c1ccc2c(c1)CC[C@H]1[C@](C)(CN)CCC[C@]21C` [Dehydroabietylamine]: the “collision cross section in nitrogen” value under setting [2] was determined as 188.3 Å².

For the molecule `Cc1ccc2nc(-c3ccc(N)cc3)sc2c1` [Dehydrothio-4-toluidine], the “collision cross section in nitrogen” value under setting [1] is 153.9 Å², the “collision cross section in nitrogen” value under setting [2] is reported as 153.9 Å², the “collision cross section in nitrogen” value under setting [5] is reported as 153.5 Å² and the “collision cross section in nitrogen” value under setting [4] was 155.8 Å².

Consider `CCNc1nc(N)nc(Cl)n1` [Deisopropylatrazine], for which the “collision cross section in nitrogen” value is 133.5 Å² under setting [1] and 133.7 Å² under setting [2].

`CCS(=O)(=O)CCSP(=O)(OC)OC` [Demeton-S-methyl sulfone]: the “collision cross section in nitrogen” value is, setting by setting: under setting [1], 144.5 Å²; under setting [2], 145 Å²; under setting [3], 155.1 Å².

In the case of `CCOP(=O)(OCC)SCCSCC` [Demeton-S], the “collision cross section in nitrogen” value under setting [3] is given as 162.4 Å².

As to `CC(C)Nc1nc(N)nc(Cl)n1` [Desethylatrazine], the “collision cross section in nitrogen” value runs as follows: under setting [1], 139.3 Å²; under setting [2], 139.4 Å².

Consider `C[C@@H]1C[C@H]2[C@@H]3CCC4=CC(=O)C=C[C@]4(C)[C@@]3(F)[C@@H](O)C[C@]2(C)[C@@]1(O)C(=O)COP(=O)(O)O` [Dexamethasone sodium phosphate], for which, under setting [4], the “collision cross section in nitrogen” value is given as 201 Å².

Regarding `C[C@@H]1C[C@H]2[C@@H]3CCC4=CC(=O)C=C[C@]4(C)[C@@]3(F)[C@@H](O)C[C@]2(C)[C@@]1(O)C(=O)CO` [Dexamethasone], the “collision cross section in nitrogen” value is, setting by setting: under setting [2], 177.6 Å²; under setting [3], 216.8 Å².

On to `COc1ccc2c(c1)[C@]13CCCC[C@@H]1[C@H](C2)N(C)CC3` [Dextromethorphan hydrobromide], for which the “collision cross section in nitrogen” value is given as 166.1 Å² under setting [1] and 166.7 Å² under setting [2].

On to `CCCCC(CC)COC(=O)c1ccccc1C(=O)OCC(CC)CCCC` (stereo not drawn) [Di(2-ethylhexyl) phthalate], for which the “collision cross section in nitrogen” value under setting [3] was 215.9 Å².

As to `COCCOC(=O)c1ccccc1C(=O)OCCOC` [Di(2-methoxyethyl) phthalate], the “collision cross section in nitrogen” value under setting [3] stood at 161.7 Å².

Regarding `C=C(C)C(=O)OCCOCCOC(=O)C(=C)C` [Di(ethylene glycol) dimethacrylate], the “collision cross section in nitrogen” value under setting [3] is 159.5 Å².

With `CCCCCCCCOC(=O)c1ccccc1C(=O)OCCCCCCCC` [Di-n-octyl phthalate], the “collision cross section in nitrogen” value under setting [3] was determined as 214.6 Å².

`CCCOC(=O)c1ccccc1C(=O)OCCC` [Di-n-propylphthalate]: the “collision cross section in nitrogen” value under setting [3] was found to be 171.5 Å².

Consider `Cc1ccc(C2OC[C@@H]3OC(c4ccc(C)cc4)O[C@H]([C@H](O)CO)[C@@H]3O2)cc1` (stereo partly drawn) [Di-p-methylbenzylidenesorbitol], for which the “collision cross section in nitrogen” value under setting [1] was 191.5 Å², the “collision cross section in nitrogen” value under setting [2] was 193.1 Å² and the “collision cross section in nitrogen” value under setting [3] is reported as 194.4 Å².

Take `C=CC(=O)NC(C)(C)CC(C)=O` [Diacetone acrylamide]: the “collision cross section in nitrogen” value under setting [3] is on record as 145.2 Å².

Take `C=CCOC(=O)c1ccccc1C(=O)OCC=C` [Diallyl phthalate]: the “collision cross section in nitrogen” value under setting [3] stood at 159 Å².

For `CC(=O)Nc1c(I)c(NC(C)=O)c(I)c(C(=O)O)c1I` [Diatrizoate sodium], the “collision cross section in nitrogen” value by setting is: under setting [2], 175.5 Å²; under setting [3], 179.4 Å².

`CC(=O)Nc1c(I)c(NC(C)=O)c(I)c(C(=O)O)c1I` [Diatrizoic acid]: the “collision cross section in nitrogen” value is, setting by setting: under setting [2], 179.4 Å²; under setting [3], 183.6 Å².

As to `CCOP(=S)(OCC)Oc1cc(C)nc(C(C)C)n1` [Diazinon], the “collision cross section in nitrogen” value came out at 173.5 Å² under setting [1] and 173.7 Å² under setting [2].

`c1ccc(N=NNc2ccccc2)cc1` [Diazoaminobenzene]: the “collision cross section in nitrogen” value under setting [2] is 147 Å².

Consider `O=C1C(N(CO)C(=O)NCO)N(CO)C(=O)N1CO` (stereo not drawn) [Diazolidinyl urea], for which the “collision cross section in nitrogen” value under setting [1] came to 162.8 Å².

As to `c1ccc2c(c1)ccc1cc3c(ccc4ccccc43)cc12` [Dibenz[a,h]anthracene], the “collision cross section in nitrogen” value under setting [5] came to 160 Å².

In the case of `c1ccc2c(c1)sc1ccccc12` [Dibenzothiophene], under setting [5], the “collision cross section in nitrogen” value is 130.2 Å².

Take `c1ccc(CNCc2ccccc2)cc1` [Dibenzylamine]: the “collision cross section in nitrogen” value stood at 150.8 Å² under setting [1] and 149.6 Å² under setting [2].

As to `CCCCOC(=O)c1ccccc1C(=O)OCCCC` [Dibutyl 1,2-benzenedicarboxylate], the “collision cross section in nitrogen” value under setting [3] is on record as 182.9 Å².

For the molecule `CCCCOC(=O)CCCCC(=O)OCCCC` [Dibutyl adipate], the “collision cross section in nitrogen” value under setting [3] is given as 180.8 Å².
